Test [1] has as its target T1, Recombinant BTK^WT kinase (Homo sapiens, UniProt Q06187).
T1 construct: purchased Invitrogen
In words: BTK WT binding affinity (LanthaScreen TR-FRET). The note with it: Kinase Tracer 236, 5 h incubation. The essentials: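 IC50 obtained by variable-slope fit of TR-FRET signal (ex 340 nm; em 615 and 665 nm) versus inhibitor concentration. Reaction held for 5 h in LanthaScreen Kinase Buffer A with 2.5 nM His-tagged BTK^WT, 15 nM Kinase Tracer 236 and 2 nM Eu anti-His antibody.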
(TR-FRET usually uses a lanthanide donor and a delayed reading to cut background.)

The target in test [2] is T2, Recombinant BTK^C481S kinase (Homo sapiens, UniProt Q06187, C481S).
T2 construct: purchased SignalChem
T2 sequence (Q06187 whole entry C481S): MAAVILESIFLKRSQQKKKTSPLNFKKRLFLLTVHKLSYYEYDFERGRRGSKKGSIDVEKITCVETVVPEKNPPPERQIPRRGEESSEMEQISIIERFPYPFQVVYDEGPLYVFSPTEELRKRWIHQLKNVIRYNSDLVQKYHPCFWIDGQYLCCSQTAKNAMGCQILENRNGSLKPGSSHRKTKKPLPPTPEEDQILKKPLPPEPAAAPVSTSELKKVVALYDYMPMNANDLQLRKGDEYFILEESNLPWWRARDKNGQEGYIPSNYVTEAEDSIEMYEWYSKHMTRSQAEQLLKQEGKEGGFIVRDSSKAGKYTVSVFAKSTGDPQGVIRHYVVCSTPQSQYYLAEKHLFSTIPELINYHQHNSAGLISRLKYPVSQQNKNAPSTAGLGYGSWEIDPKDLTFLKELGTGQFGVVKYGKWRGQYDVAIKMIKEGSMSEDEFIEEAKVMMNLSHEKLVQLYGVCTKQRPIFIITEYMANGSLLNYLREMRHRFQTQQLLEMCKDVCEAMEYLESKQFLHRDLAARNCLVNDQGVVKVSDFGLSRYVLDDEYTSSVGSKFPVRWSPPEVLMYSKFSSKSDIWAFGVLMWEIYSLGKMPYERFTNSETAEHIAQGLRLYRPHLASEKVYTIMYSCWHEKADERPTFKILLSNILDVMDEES
The test can be described thus: BTK C481S binding affinity (LanthaScreen TR-FRET). The conditions noted are these: Kinase Tracer 236, 5 h incubation. Put shortly:
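BTK C481S tracer-displacement TR-FRET: 5 nM His-tagged kinase, 2 nM Eu anti-His antibody and 30 nM Kinase Tracer 236 incubated with titrated inhibitor for 5 h in Kinase Buffer A. Read at 340 nm excitation, 615/665 nm emission; IC50 from variable-slope log[inhibitor]–response fit.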

For test [3], the target named is T3, Recombinant EGFR (Homo sapiens, UniProt P00533).
T3 construct: purchased Invitrogen
T3 sequence (P00533 25-1210): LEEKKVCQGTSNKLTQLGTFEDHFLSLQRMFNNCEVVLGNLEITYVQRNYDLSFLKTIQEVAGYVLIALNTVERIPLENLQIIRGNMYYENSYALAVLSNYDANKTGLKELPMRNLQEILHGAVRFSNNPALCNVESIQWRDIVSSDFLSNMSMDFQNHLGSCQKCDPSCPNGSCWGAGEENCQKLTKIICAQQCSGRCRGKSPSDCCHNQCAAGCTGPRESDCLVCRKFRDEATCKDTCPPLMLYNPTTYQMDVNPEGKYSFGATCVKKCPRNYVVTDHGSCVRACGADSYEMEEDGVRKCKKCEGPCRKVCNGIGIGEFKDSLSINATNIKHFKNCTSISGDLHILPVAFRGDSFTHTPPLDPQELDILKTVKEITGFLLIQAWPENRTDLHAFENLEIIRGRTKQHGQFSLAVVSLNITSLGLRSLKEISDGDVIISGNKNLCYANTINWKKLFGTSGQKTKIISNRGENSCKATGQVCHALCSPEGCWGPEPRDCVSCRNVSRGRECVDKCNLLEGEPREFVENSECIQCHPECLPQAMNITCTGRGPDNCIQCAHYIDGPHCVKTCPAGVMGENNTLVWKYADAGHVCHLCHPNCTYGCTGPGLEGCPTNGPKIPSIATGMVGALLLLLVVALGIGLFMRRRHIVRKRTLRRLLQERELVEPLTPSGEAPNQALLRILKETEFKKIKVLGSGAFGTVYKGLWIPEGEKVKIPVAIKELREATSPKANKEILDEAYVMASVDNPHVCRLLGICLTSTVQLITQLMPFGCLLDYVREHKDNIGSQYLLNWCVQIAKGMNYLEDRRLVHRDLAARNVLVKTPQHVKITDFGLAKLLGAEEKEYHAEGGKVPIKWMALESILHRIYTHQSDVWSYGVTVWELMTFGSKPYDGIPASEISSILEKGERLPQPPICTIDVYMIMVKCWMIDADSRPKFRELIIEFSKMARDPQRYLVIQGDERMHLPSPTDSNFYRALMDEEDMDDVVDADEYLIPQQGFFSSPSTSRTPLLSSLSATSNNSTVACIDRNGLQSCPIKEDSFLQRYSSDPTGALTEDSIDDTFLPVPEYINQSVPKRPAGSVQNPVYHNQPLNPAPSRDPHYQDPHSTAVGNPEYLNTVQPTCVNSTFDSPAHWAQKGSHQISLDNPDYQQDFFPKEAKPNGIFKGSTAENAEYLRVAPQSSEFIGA
The test can be described thus: EGFR binding affinity (LanthaScreen TR-FRET). The conditions noted are these: Kinase Tracer 199, 5 h incubation. Put shortly:
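Compounds were titrated against recombinant EGFR and binding was followed by LanthaScreen time-resolved FRET.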

The test system of test [4] is OCI-Ly10 human DLBCL cells. The test can be described thus: OCI-Ly10 anti-proliferative activity (Resazurin). Type of test: cell-based. The note with it: Homo sapiens, OCI-Ly10, 72 h, OCI-Ly10 cells, 72 h compound treatment, Resazurin; read-out: Proliferation Assay OCI-Ly10-20% FBS. The essentials:
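A separate untreated plate gave the Day 0 reading, measured by Resazurin fluorescence at 590 nm after 5 h. The average Day 0 value was subtracted from each treated well, and results were expressed as percent of DMSO control. IC50 values came from a log[Inhibitor] vs response Variable Slope fit in Graphpad prism.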
For orientation: Alamar Blue is a resazurin reagent that responds to reducing activity.

SMILES strings stand for the structures. Bounds are passed on as bounds.

T1 sequence (Q06187 whole entry): as the sequence (Q06187 whole entry C481S) above, with S481C counted along it

As to `COc1ccccc1C(=O)NCc1ccc(-c2nn(C3CCCC(O)C3)c(N)c2C(N)=O)cc1` (centres unmarked) [Example 48, 5-amino-1-(3-hydroxycyclohexyl)-3-[4-[[(2-methoxybenzoyl)amino]methyl]phenyl]pyrazole-4-carboxamide], the IC50 in test [1] was under 10 nM; in test [2], under 10 nM; in test [3], 100 to 1000 nM; in test [4] it was 100 to 1000 nM.

Consider `COc1ccccc1C(=O)NCc1ccc(-c2nn(-c3ccc(C(F)(F)F)cn3)c(N)c2C(N)=O)cc1` [Example 6, 5-Amino-3-[4-[[(2-methoxybenzoyl)amino]methyl]phenyl]-1-[5-(trifluoromethyl)-2-pyridyl]pyrazole-4-carboxamide], for which the IC50 in test [1] was 10 to 100 nM; in test [2], under 10 nM; in test [3], over 10000 nM; in test [4] it was 100 to 1000 nM.

The values are drawn from patent US11826351B2, “Compounds useful as kinase inhibitors” (Loxo Oncology, Inc., priority 2015, dated 2023).
